Where no end group is shown, it is not given here.
Legend:
[1] = target: T1, bradykinin receptors in Guinea Pig Ileum (Cavia porcellus, UniProt O70526); experiment: Guinea Pig Ileum functional assay; format: cell-based; conditions: number in parenthesis is pA2, read-out: Ileum, pA2 (I=inhibitor) (converted)
T1 construct: describes the Guinea Pig Ileum assay used to analyze the present compounds; from tissue; host or cells: isolated guinea pig ileum
T1 sequence (O70526 1-372): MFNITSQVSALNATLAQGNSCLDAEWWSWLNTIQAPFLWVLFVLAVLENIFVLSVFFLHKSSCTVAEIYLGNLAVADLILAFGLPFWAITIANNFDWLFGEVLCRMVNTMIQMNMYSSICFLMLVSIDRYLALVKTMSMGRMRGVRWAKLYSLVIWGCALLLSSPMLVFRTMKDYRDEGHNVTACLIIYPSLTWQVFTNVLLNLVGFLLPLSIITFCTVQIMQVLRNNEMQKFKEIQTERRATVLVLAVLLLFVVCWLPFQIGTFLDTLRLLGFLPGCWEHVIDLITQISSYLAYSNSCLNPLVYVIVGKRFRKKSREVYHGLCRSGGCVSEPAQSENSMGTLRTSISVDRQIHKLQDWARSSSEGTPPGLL
Source text: 5. Guinea Pig Ileum functional assay
Trautshold, Handbook of Expt. Pharmacol. Vol 25, Springer Verlag pp 53-55 (1970) describes the Guinea Pig Ileum assay used to analyze the present compounds. The Trautshold method was used without changes to the parameters. U.S. Pat. No. 4,693,993, at Column 14, line 10 gives a general description of data analysis for this assay.
In this table, I=inhibitor, and numbers in parenthesis are pA2. Agonist activity are given as percent BK activity.

[2] = target: T2, bradykinin receptors in Rat Uterus (Rattus norvegicus, UniProt P25023); experiment: Rat Uterus functional assay; format: cell-based; conditions: rat uterus; number in parenthesis is pA2; read-out: Uterus, pA2 (I=inhibitor) (converted)
T2 construct: describes the Rat Uterus assay used to analyze the present compounds; from tissue; host or cells: isolated rat uterus
T2 sequence (P25023 1-396): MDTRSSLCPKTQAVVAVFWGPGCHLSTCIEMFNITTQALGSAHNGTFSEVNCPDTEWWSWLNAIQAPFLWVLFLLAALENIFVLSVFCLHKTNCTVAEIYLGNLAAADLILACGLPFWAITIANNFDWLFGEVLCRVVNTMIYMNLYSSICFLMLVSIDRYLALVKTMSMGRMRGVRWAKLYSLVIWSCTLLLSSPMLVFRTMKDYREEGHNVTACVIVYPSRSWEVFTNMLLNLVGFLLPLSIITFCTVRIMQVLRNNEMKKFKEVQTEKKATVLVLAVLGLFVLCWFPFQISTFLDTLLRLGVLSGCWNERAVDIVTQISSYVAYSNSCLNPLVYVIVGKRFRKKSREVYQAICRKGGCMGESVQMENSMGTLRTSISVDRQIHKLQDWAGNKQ
Source text: 4. Rat Uterus functional assay Trautshold, Handbook of Expt. Pharmacol. […] The Trautshold method was used without changes to the parameters. U.S. Pat. No. 4,693,993, at Column 14, line 10 gives a general description of data analysis for this assay. In this table, I=inhibitor, and numbers in parenthesis are pA2. Agonist activity are given as percent BK activity.

hypotensive action of BK = conditions: rats, cited from earlier work
BK action = conditions: rabbits; subcutaneous injection; cited from earlier work
[3] = cited from earlier work

N=C(N)NCCC[C@H](NC(=O)[C@H](Cc1c(F)c(F)c(F)c(F)c1F)NC(=O)[C@@H](Cc1c(F)c(F)c(F)c(F)c1F)NC(=O)[C@H](CO)NC(=O)[C@@H](NC(=O)CNC(=O)[C@@H]1C[C@@H](O)CN1C(=O)[C@@H]1CCCN1C(=O)[C@H](CCCNC(=N)N)NC(=O)[C@H](CCCNC(=N)N)NC(=O)CCC(=O)OCCOC(=O)CCC(=O)N[C@@H](CCCNC(=N)N)C(=O)N[C@@H](CCCNC(=N)N)C(=O)N1CCC[C@H]1C(=O)N1C[C@H](O)C[C@H]1C(=O)NCC(=O)N[C@H](C(=O)N[C@@H](CO)C(=O)N[C@H](Cc1c(F)c(F)c(F)c(F)c1F)C(=O)N[C@@H](Cc1c(F)c(F)c(F)c(F)c1F)C(=O)N[C@@H](CCCNC(=N)N)C(=O)O)C1Cc2ccccc2C1)C1Cc2ccccc2C1)C(=O)O [Compound B10236, EGS-(Arg-Arg-Pro-Hyp-Gly-Igl-Ser-Df5f-f5f-Arg)2]
Kb [1]: 39.8 nM
Kb [2]: 20 nM

DArg-Arg-Pro-Hyp-Gly-Igl-Ser-DIgl-Oic-Arg [Compound B9430]
bioavailability (hypotensive action of BK; intragastric administration): low
activity following intragastric administration (hypotensive action of BK; intragastric): active
duration of block of the hypotensive action of BK (hypotensive action of BK; single intravenous injection): more than four
duration of block of BK action (hypotensive action of BK; subcutaneous injection): 48 h
duration of block of BK action (BK action): more than 24 hrs

RPPGFSPFR [BK]
plasma half-life ([3]; caused by CPN): ≤ 15 s
cleavage by ACE on a single passage through the pulmonary circulation ([3]; single passage, pulmonary circulation): more than 99%
